Experimental data published in patent US10981902B2 (Merck Sharp & Dohme Corp., priority 2017, dated 2021).

Target: T1, human M4 muscarinic acetylcholine receptor (Homo sapiens, UniProt P08173)
T1 construct: expressed in transfected cells; host or cells: CHO-K1
T1 sequence (P08173 1-479): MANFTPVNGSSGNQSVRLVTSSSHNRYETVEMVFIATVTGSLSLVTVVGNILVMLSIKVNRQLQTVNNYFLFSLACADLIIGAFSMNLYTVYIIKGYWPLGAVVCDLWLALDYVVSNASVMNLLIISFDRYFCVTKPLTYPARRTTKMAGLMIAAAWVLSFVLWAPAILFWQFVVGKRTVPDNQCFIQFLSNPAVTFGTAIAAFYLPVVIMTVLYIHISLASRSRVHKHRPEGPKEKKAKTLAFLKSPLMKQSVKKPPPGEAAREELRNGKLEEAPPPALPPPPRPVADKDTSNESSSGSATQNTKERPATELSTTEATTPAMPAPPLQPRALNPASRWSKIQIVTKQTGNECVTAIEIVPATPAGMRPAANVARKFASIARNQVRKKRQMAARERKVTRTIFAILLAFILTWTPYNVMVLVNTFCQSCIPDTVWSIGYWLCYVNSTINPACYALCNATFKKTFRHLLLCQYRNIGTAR
Test: human FLIPR-based M4 PAM assay (calcium mobilization, CHO-K1 cells with human M4 receptor and Gαqi5)
Format: cell-based
Details: inflection point (IP) of dose response curve, acetylcholine added at 20% of maximum response, read-out: M4 FLIPPR Hu IP
Description: In a typical experiment the M4 muscarinic acetylcholine receptor modulating activity of the compounds of the present invention was determined in accordance with the following experimental method. CHO-K1 cells stably transfected with human M4 receptor and chimeric G-protein Gαqi5 (Coward P, et al., Analytical Biochemistry, 270:242-248 (1999)) are thawed from liquid N2 storage, resuspended in growth medium, plated in black, clear bottom 384 well plates, and incubated 16-20 hours at 37° C., 5% CO2. On the day of assay, growth medium is removed, the cells are washed 2 times with wash buffer, and cells are incubated in dye loading buffer at 37° C., 5% CO2 for ˜1 hour. Following dye loading the cell plates are placed in a FLIPR Tetra instrument and while monitoring dye fluorescence (excitation […]), 10 uL of test substance at increasing concentrations is added, and fluorescence values are recorded for 4 min. Next, 10 uL of acetylcholine is added (final concentration calculated so as to achieve 20% of the maximum acetycholine response), and the fluorescence reading is continued for 3.5 min. In some cases, a third addition of acetylcholine (final concentration calculated to achieve 70% of the maximal acetylcholine response) is performed. The resulting dose response curves are fit to a 4 parameter logistic equation and the final result is determined as the inflection point (IP) of the curve
CHO-K1 cells stably transfected with human M4 receptor and chimeric G-protein Gαqi5 are thawed from liquid N2 storage, resuspended in growth medium, plated in black, clear bottom 384 well plates, and incubated 16-20 hours at 37° C., 5% CO2.
On the day of assay, growth medium is removed, the cells are washed 2 times with wash buffer, and cells are incuabted in dye loading buffer at 37° C., 5% CO2 for ˜1 h. Following dye loading the cell plates are placed in a FLIPR Tetra instrument and while monitoring dye fluorescence ([…]), 10 uL of test substance at increasing concentrations is added, and fluorescence values are recorded for 4 min. Next, 10 uL of acetylcholine is added (final concentration calculated so as to achieve 20% of the maximum acetycholine response), and the fluorescence reading is continued for 3.5 min. In some cases, a third addition of acetylcholine (final concentration calculated to achieve 70% of the maximal acetylcholine response) is performed.

EC50 [nM] | Compound
43 | CC1(Cc2ncc(-c3cc4c(nc3-c3ccc5ccc(F)nc5c3)C(=O)CC4)o2)CCCC1 [Example 43, 2-(2-fluoroquinolin-7-yl)-3-(2-((1-methylcyclopentyl)methyl)oxazol-5-yl)-5,6-dihydro-7H-cyclopenta[b]pyridin-7-one]
13 | Cc1ccc(-c2cnc(CC3CCCC3)o2)c(-c2ccc3c(c2)C(=O)N(C)C3)n1 [Example 46, 6-(3-(2-(cyclopentylmethyl)oxazol-5-yl)-6-methylpyridin-2-yl)-2-methylisoindolin-1-one]
24 | Cc1ccc(-c2cnc(Cc3ccccc3)o2)c(-c2ccc3cccnc3c2)n1 [Example 47, 2-benzyl-5-(6-methyl-2-(quinolin-7-yl)pyridin-3-yl)oxazole]
19 | COc1cc2ccc(-c3nc(C)ccc3-c3cnc(Cc4ccccc4F)o3)cc2nn1 [Example 48, 2-(2-fluorobenzyl)-5-(2-(3-methoxycinnolin-7-yl)-6-methylpyridin-3-yl)oxazole]
45 | Cn1cnc2cc(-c3nc(C(F)F)ccc3-c3cnc(CC4CCCC4)o3)cnc21 [Example 49, 2-(cyclopentylmethyl)-5-(6-(difluoromethyl)-2-(3-methyl-3H-imidazo[4,5-b]pyridin-6-yl)pyridin-3-yl) oxazole]
24 | N#Cc1ccc(-c2cnc(CC3CCCC3)o2)c(-c2ccc3cccnc3c2)n1 [Example 50, 5-(2-(cyclopentylmethyl)oxazol-5-yl)-6-(quinolin-7-yl)picolinonitrile]
42 | N#Cc1ccc(-c2cnc(CC3CCCC3)o2)c(-c2cnc3c(c2)C(=O)N(CC2CC2)C3)n1 [Example 51, 5-(2-(cyclopentylmethyl)oxazol-5-yl)-6-(6-(cyclopropylmethyl)-5-oxo-6,7-dihydro-5H-pyrrolo[3,4-b]pyridin-3-yl) picolinonitrile]
178 | O=C1c2cc(-c3nc4c(cc3-c3cnc(CC5CCCC5)o3)CCC4)cnc2CN1CC1CC1 [Example 52, 3-(3-(2-(cyclopentylmethyl)oxazol-5-yl)-6,7-dihydro-5H-cyclopenta[b]pyridin-2-yl)-6-(cyclopropylmethyl)-6,7-dihydro-5H-pyrrolo[3,4-b] pyridin-5-one]
153 | CN1Cc2ncc(-c3nc4c(cc3-c3cnc(CC5CCCC5)o3)CCC4)cc2C1=O [Example 53, 3-(3-(2-(cyclopentylmethyl)oxazol-5-yl)-6,7-dihydro-5H-cyclopenta[b]pyridin-2-yl)-6-methyl-6,7-dihydro-5H-pyrrolo[3,4-b] pyridin-5-one]

More lines, now with the values behind:

Compound | EC50 [nM]
CN1Cc2ccc(-c3nc(C#N)ccc3-c3cnc(CC(C)(C)C(F)(F)F)o3)cc2C1=O [Example 22, 6-(2-methyl-3-oxoisoindolin-5-yl)-5-(2-(3,3,3-trifluoro-2,2-dimethylpropyl)-oxazol-5-yl)picolino-nitrile] | 76
CC(C)(Cc1ncc(-c2ccc(C#N)nc2-c2ccc3cccnc3c2)o1)C(F)(F)F [Example 23, 6-(quinolin-7-yl)-5-(2-(3,3,3-trifluoro-2,2-dimethylpropyl)-oxazol-5-yl)picolino-nitrile] | 104
CC(C)(Cc1ncc(-c2ccc(C(F)F)nc2-c2ccc3cccnc3c2)o1)C(F)(F)F [Example 24, 5-(6-(difluoro-methyl)-2-(quinolin-7-yl)pyridin-3-yl)-2-(3,3,3-trifluoro-2,2-dimethylpropyl)-oxazole] | 136
CC(C)(Cc1ncc(-c2ccc(C(F)F)nc2-c2ccn3ccnc3c2)o1)C(F)(F)F [Example 25, 5-(6-(difluoromethyl)-2-(imidazo[1,2-a]-pyridin-7-yl)pyridin-3-yl)-2-(3,3,3-trifluoro-2,2-dimethylpropyl)-oxazole] | 35
CN1Cc2ccc(-c3nc(C(F)F)ccc3-c3cnc(CC(C)(C)C(F)(F)F)o3)cc2C1=O [Example 26, 6-(6-(difluoromethyl)-3-(2-(3,3,3-trifluoro-2,2-dimethylpropyl)-oxazol-5-yl)pyridin-2-yl)-2-methylisoindolin-1-one] | 63
CC(C)(C)Cc1ncc(-c2cc(F)cnc2-c2ccn3ccnc3c2)o1 [Example 27, 5-(5-fluoro-2-(imidazo[1,2-a]-pyridin-7-yl)-pyridin-3-yl)-2-neopentyloxazole] | 113
CC(C)(Cc1ncc(-c2ccc(C#N)nc2-c2ccn3ccnc3c2)o1)C(F)(F)F [Example 28, 6-(imidazo[1,2-a]-pyridin-7-yl)-5-(2-(3,3,3-trifluoro-2,2-dimethylpropyl)-oxazol-5-yl)picolino-nitrile] | 122
N#Cc1ccc(-c2cnc(CC3CCC3)o2)c(-c2ccc3cccnc3c2)n1 [Example 29, 5-(2-(cyclobutyl-methyl)oxazol-5-yl)-6-(quinolin-7-yl)-picolinonitrile] | 30
CC(C)(C)Cc1ncc(-c2ccc(C(F)F)nc2-c2ccn3cnnc3c2)o1 [Example 30, 5-(2-([1,2,4]triazolo-[4,3-a]pyridin-7-yl)-6-(difluoromethyl)-pyridin-3-yl)-2-neo-pentyloxazole] | 86
CC(C)CCc1ncc(-c2ccc(C#N)nc2-c2ccc3cccnc3c2)o1 [Example 31, 5-(2-isopentyloxazol-5-yl)-6-(quinolin-7-yl)picolinonitrile] | 43
Cc1cn2ccc(-c3nc(C#N)ccc3-c3cnc(CC(C)(C)C)o3)cc2n1 [Example 32, 6-(2-methylimidazo-[1,2-a]pyridin-7-yl)-5-(2-neopentyloxazol-5-yl)picolinonitrile] | 69
Cc1cn2ccc(-c3nc(C#N)ccc3-c3cnc(CC(C)(C)C(F)(F)F)o3)cc2n1 [Example 33, 6-(2-methylimidazol-[1,2-a]pyridin-7-yl)-5-(2-(3,3,3-trifluoro-2,2-dimethylpropyl)-oxazol-5-yl)picolino-nitrile] | 72
Cc1nc2cc(-c3nc(C#N)ccc3-c3cnc(CC(C)(C)C)o3)ccn2n1 [Example 34, 6-(2-methyl[1,2,4]-triazolo[1,5-a]pyridin-7-yl)-5-(2-neopentyl-oxazol-5-yl)picolino-nitrile] | 107
Cc1nnc2cc(-c3nc(C#N)ccc3-c3cnc(CC(C)(C)C)o3)ccn12 [Example 35, 6-(3-methyl-[1,2,4]-triazolo[4,3-a]pyridin-7-yl)-5-(2-neopentyl-oxazol-5-yl)picolino-nitrile] | 130
CC(C)(C)Cc1ncc(-c2ccc3cncn3c2-c2ccn3ccnc3c2)o1 [Example 36, 5-(5-(imidazo[1,2-a]-pyridin-7-yl)imidazo-[1,5-a]pyridin-6-yl)-2-neopentyloxazole] | 75
COCc1cn2ccc(-c3nc(C#N)ccc3-c3cnc(CC(C)(C)C)o3)cc2n1 [Example 37, 6-(2-(methoxy-methyl)imidazo-[1,2-a]pyridin-7-yl)-5-(2-neopentyl-oxazol-5-yl)picolino-nitrile] | 78
CC(C)(C)Cc1ncc(-c2ccc(C#N)nc2-c2cnc3c(c2)C(=O)N(CC2CC2)C3)o1 [Example 39, 6-(6-(cyclopropyl-methyl)-5-oxo-6,7-dihydro-5H-pyrrolo[3,4-b]-pyridin-3-yl)-5-(2-neopentyloxazol-5-yl)picolinonitrile] | 93
CC(CCc1ncc(-c2ccc(C#N)nc2-c2ccn3ccnc3c2)o1)C(F)(F)F (centres unmarked) [Example 40, 6-(imidazo[1,2-a]-pyridin-7-yl)-5-(2-(4,4,4-trifluoro-3-methylbutyl)oxazol-5-yl)picolinonitrile] | 46
CN1Cc2ccc(-c3nc4c(cc3-c3cnc(CC5(C)CCCC5)o3)CCC4=O)cc2C1=O [Example 41, 2-(2-methyl-3-oxoisoindolin-5-yl)-3-(2-((1-methyl-cyclopentyl)-methyl)oxazol-5-yl)-5,6-dihydro-7H-cyclopenta[b]-pyridin-7-one] | 45
CC1(Cc2ncc(-c3cc4c(nc3-c3ccc5ccc(F)nc5c3)C(O)CC4)o2)CCCC1 (centres unmarked) [Example 42, 2-(2-fluoroquinolin-7-yl)-3-(2-((1-methylcyclopentyl)methyl)oxazol-5-yl)-6,7-dihydro-5H-cyclopenta[b]pyridin-7-ol] | 65
